In patent US8846570B2, “Herbicidal compositions comprising 4-amino-3-chloro-5-fluoro-6-(4-chloro-2-fluoro-3-methoxyphenyl)pyridine-2-carboxylic acid or a derivative thereof and microtubule inhibiting herbicides” (Dow AgroSciences LLC, priority 2012, dated 2014):

Key:
[1] = system: Ipomoea hederacea (L.) Jacq. (IPOHE); assay: Pre-emergence soil-applied, greenhouse: visual weed control; format: in vivo; conditions: for Visual Weed Control (%) - 33 DAA IPOHE Obs: soil-applied pre-emergence
Text: Seeds or nutlets of the desired test plant species were planted in a soil matrix prepared by mixing a loam soil (e.g., 32 percent silt, 23 percent clay, and 45 percent sand, with a pH of about 6.5 and an organic matter content of about 1.9 percent) and calcareous grit in an 80 to 20 ratio. The soil matrix was contained in plastic pots with a volume of 1 quart and a surface area of 83.6 square centimeters (cm^2).
Forms of compound A were applied on an acid equivalent basis.
(§1) For treatments comprised of formulated compounds, measured amounts of compounds were placed individually in 25 mL glass vials and diluted in a volume of 1.25% (v/v) Agri-Dex® crop oil concentrate (COC) to obtain 12× stock solutions. […] Application solutions were prepared by adding an appropriate amount of each stock solution (e.g., 1 mL) and diluted to the appropriate final concentrations with the addition of 10 mL of an aqueous mixture of 1.25% (v/v) COC so that the final spray solutions contained 1.25% (v/v) COC.
For treatments comprised of formulated and technical compounds, weighed amounts of the technical materials were placed individually in 25 mL glass vials and dissolved in a volume of 97:3 (v/v) acetone/DMSO to obtain 12× stock solutions, and measured amounts of the formulated compounds were placed individually in 25 mL glass vials and diluted in a volume of 1.5% (v/v) COC or water to obtain 12× stock solutions. […] Application solutions were prepared by adding an appropriate amount of each stock solution (e.g., 1 mL) and diluted to the appropriate final concentrations with the addition of an appropriate amount of an aqueous mixture of 1.5% (v/v) COC so that the final spray solutions contained 1.25% (v/v) COC. As required, additional water and/or 97:3 (v/v) acetone/DMSO was added to individual application solutions so that the final acetone and DMSO concentrations of the application solutions being compared were 8.1% and 0.25%, respectively.
All stock solutions and applications solutions were visually inspected for compound compatibility prior to application. Spray solutions were applied to the soil with an overhead Mandel track sprayer equipped with a 8002E nozzles calibrated to deliver 187 L/ha over an application area of 0.503 m^2 at a spray height of 18 inches (46 cm) above average pot height. Control pots were sprayed in the same manner with the solvent blank.
The treated and control pots were placed in a greenhouse and top watered as needed. […] The pots were maintained in a greenhouse with an approximate 14 hr photoperiod which was maintained at about 29° C. during the day and 26° C. during the night. Nutrients (Peters® Excel 15-5-15 5-Ca 2-Mg) were applied in the irrigation solution as needed and water was added on a regular basis. Supplemental lighting was provided with overhead metal halide 1000-Watt lamps as necessary. After approximately 4 weeks, the condition of the test plants as compared with that of the untreated plants was determined visually and scored on a scale of 0 to 100 percent where 0 corresponds to no injury or growth inhibition and 100 corresponds to complete kill.
(§2) Colby's equation was used to determine the herbicidal effects expected from the mixtures (Colby, S. R. 1967. Calculation of the synergistic and antagonistic response of herbicide combinations. Weeds 15:20-22.).
(§3) The following equation was used to calculate the expected activity of mixtures containing two active ingredients, A and B: Expected=A+B−(A×B/100)

[2] = system: Leptochloa chinensis (L.) Nees (LEFCH); assay: Postemergence foliar-applied, direct seeded rice, greenhouse: visual weed control; format: in vivo; conditions: 19 DAA
Text: Seeds or nutlets of the desired test plant species were planted in a soil matrix prepared by mixing a loam or sandy loam soil (e.g., 28.6 percent silt, 18.8 percent clay, and 52.6 percent sand, with a pH of about 5.8 and an organic matter content of about 1.8 percent) and calcareous grit in an 80 to 20 ratio. The soil matrix was contained in plastic pots with a volume of 1 quart and a surface area of 83.6 cm^2. When required to ensure good germination and healthy plants, a fungicide treatment and/or other chemical or physical treatment was applied. The plants were grown for 8-22 days in a greenhouse with an approximate 14 h photoperiod which was maintained at about 29° C. during the day and 26° C. during the night. Nutrients (Peters Excel® 15-5-15 5-Ca 2-Mg and iron chelate) were applied in the irrigation solution as needed and water was added on a regular basis. Supplemental lighting was provided with overhead metal halide 1000-Watt lamps as necessary. The plants were employed for testing when they reached the first through fourth true leaf stage.
Treatments consisted of the acid or esters of 4-amino-3-chloro-5-fluoro-6-(4-chloro-2-fluoro-3-methoxy-phenyl)pyridine-2-carboxylic acid (Compound A), each formulated as an SC (suspension concentrate), and various herbicidal components alone and in combination. Forms of compound A were applied on an acid equivalent basis.
Treatment requirements were calculated based upon the rates being tested, the concentration of active ingredient or acid equivalent in the formulation, and a 12 mL application volume at a rate of 187 L/ha.
as §1, with “oil concentrated” for “oil concentrate (COC)”, “(v/v) crop oil concentrate” for “(v/v) COC”, “contained 1.25+/−0.05%” for “contained 1.25%”, “(v/v) crop oil concentrate.” for “(v/v) COC.”
As required, additional water and/or 97:3 v/v acetone/DMSO was added to individual application solutions so that the final acetone and DMSO concentrations of the application solutions being compared were 8.1% and 0.25%, respectively.
All stock solutions and applications solutions were visually inspected for compound compatibility prior to application. Spray solutions were applied to the plant material with an overhead Mandel track sprayer equipped with a 8002E nozzles calibrated to deliver 187 L/ha over an application area of 0.503 m^2 at a spray height of 18 to 20 inches (46 to 50 cm) above average plant canopy height. Control plants were sprayed in the same manner with the solvent blank.
The treated plants and control plants were placed in a greenhouse as described above and watered by sub-irrigation to prevent wash-off of the test compounds. After approximately 3 weeks, the condition of the test plants as compared with that of the untreated plants was determined visually and scored on a scale of 0 to 100 percent where 0 corresponds to no injury or growth inhibition and 100 corresponds to complete kill.
as §2, §3

## CSC(=O)c1c(C(F)F)nc(C(F)(F)F)c(C(=O)SC)c1CC(C)C [Dithiopyr, S,S′-dimethyl-2-(difluoromethyl)-4-(2-methylpropyl)-6-(trifluoromethyl)-3,5-pyridinedicarbothioate]
[1]; 27 DAA, 140 g ai/ha
  Visual Weed Control (%) Obs: 3%
[1]; 27 DAA, 280 g ai/ha
  Visual Weed Control (%) Obs: 20%

## COc1c(Cl)ccc(-c2nc(C(=O)OCc3ccccc3)c(Cl)c(N)c2F)c1F [Compound A Benzyl Ester, benzyl ester of 4-amino-3-chloro-5-fluoro-6-(4-chloro-2-fluoro-3-methoxy-phenyl)pyridine-2-carboxylic acid]
[2]; 4.38 g ae/ha
  Visual Weed Control (%) Obs: 0%
[2]; 8.75 g ae/ha
  Visual Weed Control (%) Obs: 25%
[2]; 17.5 g ae/ha
  Visual Weed Control (%) Obs: 30%
[1]; 27 DAA, 16 g ae/ha
  Visual Weed Control (%) Obs: 20%
[1]; 27 DAA, 32 g ae/ha
  Visual Weed Control (%) Obs: 40%
[1]; 33 DAA, 16 g ae/ha
  Visual Weed Control (%) Obs: 0%
[1]; 33 DAA, 32 g ae/ha
  Visual Weed Control (%) Obs: 5%
[1]; Compound A Benzyl Ester 16 g ae/ha alone, 33 DAA
  Visual Weed Control (%) - 33 DAA IPOHE Obs: 0%
[1]; Compound A Benzyl Ester 32 g ae/ha alone, 33 DAA
  Visual Weed Control (%) - 33 DAA IPOHE Obs: 5%

## CCC(CC)Nc1c([N+](=O)[O-])cc(C)c(C)c1[N+](=O)[O-] [Pendimethalin, N-(1-ethylpropyl)-3,4-dimethyl-2,6-dinitrobenzenamine, reference compound]
[2]; 140 g ai/ha
  Visual Weed Control (%) Obs: 0%
[2]; 280 g ai/ha
  Visual Weed Control (%) Obs: 20%
[2]; 560 g ai/ha
  Visual Weed Control (%) Obs: 80%
